From publication PMC5947712, “High‐Throughput Kinetic Analysis for Target‐Directed Covalent Ligand Discovery” (Angewandte Chemie (International Ed. in English), 2018)
Where “and” joins values, the source holds several entries; their conditions need not be identical. Equal values may be shown once.

Experiments:
Cdk2:cyclin A2 = target: T1, Cdk2:cyclin A2 (Homo sapiens, UniProt P24941); assay: In vitro kinase activity after 24 h incubation of active Cdk2:cyclin A2 with acrylamides; format: biochemical; settings: 0.5 mM, n=3, read-out: % inhibition ± SEM Cdk2
T1 construct: GST (N, cleaved yes); made in house; host or cells: E. coli Tuner(DE3)
Method: (§1) Figure 6 a) Sequence alignment of Cdk family. Cys177 is highlighted in yellow. b) Published selectivity profiles of selected Cdk2 inhibitors.29 c) Active Cdk1/Cdk2:cyclin A2 was incubated with acrylamides 1 and 2 (0.5 mM) for 24 hours and then their in vitro kinase activity was measured (n=3). […]
(§2) Tables! 2R6.! Molecular! replacement! was! conducted! on! all! data! sets! using!Phaser[14]/MOLREP[15]!against! apoRCdk2! (PDB:!
(§3) 4EK3)!and!the! model! was! iteratively! refined! using! Phenix.Refine[16]!with! manual! modelling! and! adjustments! carried! out! in!
(§4) COOT[17].! Descriptions! of! the! ligands! and! links! were! generated! with! JLigand[18]!and! refined! with! Refmac[19].! Electron! density! […]
Cdk2! (1! mg)! was! sequentially! incubated! with! aliquots! of! CAK1! (3!×!0.05! mg)! at! r.t.! for! […]
Phosphorylation! of! […] Cdk2! during! gel! electrophoresis! and! the! reaction! was! monitored! by! […]
(§5) initiated!by!addition!of!0.5!mM!ATP!and!0.24!mM!substrate!peptide!([…])!and!the!absorbance!at!340!nm!was!moniR […]
(§6) plate! reader! […]
(§7) was!measured!from!the!gradient!during!the!linear!phase!of!product!accumulation.!! […]
(§8) ments,! the! wavelength! was! adjusted! to! 230! nm! and! elipticity! was! measured! at! […]
(§9) repeats!of!10!s!integrations!per!temperature.!The!meltRtemperature!(Tm)!was!determined!using!Prism!6.0!by!fitting!a!sigmoidal! […]
(§10) The! cell! lysates! were!diluted! to! […] RIPA! lysis! buffer,! as! quantified! by! the! […]

Cdk1‐cyclin A2 = Cdk1‐cyclin A2 (Homo sapiens, UniProt P06493); assay: In vitro kinase activity after 24 h incubation of active Cdk1:cyclin A2 with acrylamides; format: biochemical; settings: for inhibition at 500 µM: 0.5 mM, 24 hours incubation, n=3, read-out: % inhibition ± SEM Cdk1
Method: as §1, §2, §3, §4
Cdk2! (1! mg)! was! sequentially! incubated! with! aliquots! of! CAK1! (3!×!0.05! mg)! at! r.t.! for! 4! hours! at! a! time! in! 1.5! mL! of! a! 30! mM!
Tris/HCl! buffer! (pH! 7.5)! containing! 10! mM! MgCl2,! 10! mM! ATP! and! 3! mM! DTT.! As! CAK1! appeared! to! become! rapidly! inactiR
vated! in! the! presence! of! pCdk2,! three! repetitions! were! required! to! drive! the! reaction! to! completion.! The! resulting! solution! was!
incubated!with!50!µL!of!glutathioneRSepharose!beads!and!filtered!to!remove!remaining!CAK1.!
Phosphorylation! of! T160! results! in! increased! mobility! of! Cdk2! during! gel! electrophoresis! and! the! reaction! was! monitored! by!
SDSRpage.! The! site! of! modification! was! subsequently! verified! by! western! blot! using! an! antiRT160! antibody! (Cell! Signalling!
2561)!and!complete!monoRmodification!was!confirmed!by!intact!protein!mass!spectrometry.! […]
as §5, §6, §7, §8, §9, §10

Cdk2(WT) = Cdk2(WT) (Homo sapiens, UniProt P24941); assay: qIT thiol consumption assay with Cdk2(WT) (Cys177); format: binding; design: made in house; host or cells: E. coli Tuner(DE3); settings: for k Cdk2(WT) (pseudo-first-order rate constant): compound 0.5 mM, Cdk2(WT) 5 μM, TCEP-agarose 2 % w/v
[1] = qIT (quantitative irreversible tethering) thiol consumption assay with glutathione; settings: compound 0.5 mM, glutathione 5 μM, TCEP-agarose 2 % w/v
Method: To measure the kinetics of electrophile‐thiol conjugation we developed quantitative irreversible tethering (qIT), a technique which employs fluorogenic thiol quantification (FTQ) in a high‐throughput thiol consumption assay (Figure 1 a). […] We solved this problem using an immobilized reducing agent (TCEP‐agarose, 2 % w/v), allowing facile separation by centrifugation before conducting the FTQ step (Figure 1 b).
The target thiol (5 μM) is reacted with electrophilic fragments (0.5 mM) under pseudo‐first‐order conditions in the presence of TCEP‐agarose (2 % w/v). Reaction progress is followed by discrete measurements of residual target thiol concentration using the fluorogenic probe CPM and rate constants are derived from exponential regression analysis. b) TCEP‐agarose prevents aerobic thiol oxidation. Glutathione solutions were stored ±TCEP‐agarose (2 % w/v).
Electrophiles were individually reacted with glutathione under pseudo‐first‐order conditions in the presence of TCEP‐agarose. […] Fluorescence measurements were normalized against a DMSO control and exponential regressions used to determine rate constants.
ReactionBplate" setup:!Each! well! of! a! 96Rwell! PCR! plate! was! charged! with! 60–100! µL! of! target! thiol! (GSH! or! protein,! 10! µM)!
and! 4%! w/v! TCEPRagarose! beads! in! 100! mM! phosphate! buffer! (pH! 7.5! or! 8)! and! cooled! to! 4! ˚C.! Reactions! were! started! by!
addition! of! an! equal! volume! of! preRcooled! electrophile! solution! (1! mM,! 2%! DMSO)! in! 0.1! M! phosphate! buffer! (final! concentraR
tion:! thiol! =! 5! µM,! electrophile! =! 0.5! mM,! 2%! w/v! TCEPRagarose! beads),! with! a! minimum! of! 4! wells! per! plate! used! as!
DMSO/thiol! only! controls.! After! mixing,! TCEPRagarose! was! pelleted! by! centrifugation! (1,300! rpm,! 1! min)! and! the! plate! incuR
bated!at!4!˚C.,CPM"Quench:! At! a! series! of! time! points!

Cdk1‐cyclin A2, sequence (P06493 whole entry): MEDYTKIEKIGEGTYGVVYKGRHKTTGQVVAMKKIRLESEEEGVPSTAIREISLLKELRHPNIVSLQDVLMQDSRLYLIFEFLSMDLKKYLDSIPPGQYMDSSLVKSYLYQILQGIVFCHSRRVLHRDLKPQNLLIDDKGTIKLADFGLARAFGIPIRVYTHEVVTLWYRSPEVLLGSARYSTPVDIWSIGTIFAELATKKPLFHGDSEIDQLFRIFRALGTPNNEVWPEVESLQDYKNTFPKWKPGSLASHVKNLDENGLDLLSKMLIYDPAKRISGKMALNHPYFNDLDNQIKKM
Cdk1‐cyclin A2, sequence (P20248 whole entry partner): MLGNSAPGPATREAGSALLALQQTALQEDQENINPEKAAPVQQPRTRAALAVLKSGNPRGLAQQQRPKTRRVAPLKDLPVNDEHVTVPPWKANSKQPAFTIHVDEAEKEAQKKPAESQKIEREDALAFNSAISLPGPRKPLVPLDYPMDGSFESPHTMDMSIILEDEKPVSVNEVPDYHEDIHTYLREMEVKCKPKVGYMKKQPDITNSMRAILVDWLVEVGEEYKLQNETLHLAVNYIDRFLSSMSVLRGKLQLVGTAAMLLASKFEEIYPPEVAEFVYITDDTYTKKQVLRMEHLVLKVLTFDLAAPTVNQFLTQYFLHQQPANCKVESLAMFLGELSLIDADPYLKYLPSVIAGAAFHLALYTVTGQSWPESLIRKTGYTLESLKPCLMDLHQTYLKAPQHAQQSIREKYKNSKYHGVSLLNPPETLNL

| Compound | inhibition at 500 µM (Cdk2:cyclin A2) [%] | inhibition at 500 µM (Cdk1‐cyclin A2) [%] | inhibition of Cdk1‐cyclin A2 in vitro (in words) (Cdk1‐cyclin A2; prolonged exposure (24 hours)) | k Cdk2(WT) (pseudo-first-order rate constant) (Cdk2(WT)) [h⁻¹] | REF Cdk2(WT) (rate enhancement factor = k protein/k GSH) (Cdk2(WT)) | k GSH (pseudo-first-order rate constant) [1] [h⁻¹] |
| --- | --- | --- | --- | --- | --- | --- |
| C=CC(=O)N1CCN(C(=O)OC(C)(C)C)c2ccccc21 [Acrylamide 1] | 83 ± 3 | 2 ± 10 | failed to inhibit | 0.204 | 5.0 | 0.041 |
| C=CC(=O)N1CCN(C(=O)OC)c2ccccc21 [Acrylamide 2] | 5 ± 6 | -2 ± 8 |  | 0.233 | 2.6 and 2.63 | 0.089 |
